Experimental findings from patent publication US12077503B2, “Substituted cyclic amides and their use as herbicides” (FMC CORPORATION, priority 2015, dated 2024) are described below.

Common to all, as to type: in vivo
Test [1] concerns ducksalad (Heteranthera limosa). Nature of the test: Test B flooded paddy test. As to conditions: Heteranthera limosa, Flood, 250 g ai/ha; scale of 0 to 100 where 0 is no effect and 100 is complete control; read-out: Ducksalad plant response rating. In outline:
(§1)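 Response scored visually against untreated controls, 0 = no effect and 100 = complete control, 13–15 d after treatment in the greenhouse. Compounds added to paddy water held 3 cm above soil surface. Treatment given at 2-leaf stage.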

For test [2], the system named is sedge, umbrella (small-flower umbrella sedge, Cyperus difformis). In words: Test B flooded paddy test. The note with it: Cyperus difformis, Flood, 250 g ai/ha; scale of 0 to 100 where 0 is no effect and 100 is complete control; read-out: Sedge, Umbrella plant response rating. In outline:
as §1

The test system of another test is rice (Oryra sativa). Nature of the test: Test B flooded paddy test. As to conditions: Oryza sativa, Flood, 250 g ai/ha; scale of 0 to 100 where 0 is no effect and 100 is complete control; read-out: Rice plant response rating. Put shortly:
as §1

The test system of test [3] is barnyardgrass (Echinochloa crus-galli). In words: Test B flooded paddy test. As to conditions: Echinochloa crus-galli, Flood, 250 g ai/ha; scale of 0 to 100 where 0 is no effect and 100 is complete control; read-out: Barnyardgrass plant response rating. In outline:
as §1

In test [4] the test system is giant foxtail (Setaria faberii). In words: Test A preemergence. As to conditions: Setaria faberi, pre-emergence, 240 h; for pest or weed control at 125 g/ha: 125 g ai/ha, preemergence, 0 to 100 scale where 0 is no effect and 100 is complete control, read-out: Foxtail, Giant plant response rating; for pest or weed control at 500 g/ha: 500 g ai/ha, Preemergence, visual injury vs untreated controls after approximately 10 d, read-out: Foxtail, Giant plant response rating (0 to 100 scale where 0 is no effect and 100 is complete control). Put shortly: (§2)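 Preemergence soil spray on seeded pots or post-emergence spray on 1–2 leaf plants, in loam–sand blend. Greenhouse ~10 d. Visual rating 0–100 against untreated plants.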

In test [5] the test system is Galium (catchweed bedstraw, Galium aparine). In words: Test A postemergence. The note with it: Galium, post-emergence, 240 h, 125 g ai/ha, postemergence, visual injury rating after approximately 10 d; read-out: Galium plant response rating (0 to 100 scale, 0 no effect, 100 complete control). Put shortly:
as §2

In test [6] the test system is giant foxtail (Setaria faberii). Nature of the test: Test A postemergence. As to conditions: Setaria faberi, post-emergence, 240 h, 125 g ai/ha, postemergence, visual injury rating after approximately 10 d; read-out: Foxtail, Giant plant response rating (0 to 100 scale, 0 no effect, 100 complete control). In outline:
as §2

The subject of test [7] is blackgrass (Alopecurus myosuroides). In words: Test A postemergence. As to conditions: Alopecurus myosuroides, post-emergence, 240 h, 125 g ai/ha, postemergence, visual injury rating after approximately 10 d; read-out: Blackgrass plant response rating (0 to 100 scale, 0 no effect, 100 complete control). In outline: as §2
The subject of another test is Kochia (Kochia scoparia). Nature of the test: Test A postemergence. As to conditions: Bassia scoparia, post-emergence, 240 h, 125 g ai/ha, postemergence, visual injury rating after approximately 10 d; read-out: Kochia plant response rating (0 to 100 scale, 0 no effect, 100 complete control). Put shortly:
as §2

In test [8] the test system is wheat (Triticum aestivum). Nature of the test: Test A postemergence. The note with it: Triticum aestivum, post-emergence, 240 h, 125 g ai/ha, postemergence, visual injury rating after approximately 10 d; read-out: Wheat plant response rating (0 to 100 scale, 0 no effect, 100 complete control). In outline:
as §2

In test [9] the test system is ryegrass, Italian (Italian ryegrass, Lolium multiflorum). Nature of the test: Test A postemergence. As to conditions: Lolium multiflorum, post-emergence, 240 h, 125 g ai/ha, postemergence, visual injury rating after approximately 10 d; read-out: Ryegrass, Italian plant response rating (0 to 100 scale, 0 no effect, 100 complete control). In outline: as §2
A further test has as its system corn (Zea mays). Nature of the test: Test A postemergence. The note with it: Zea mays, post-emergence, 240 h, 125 g ai/ha, postemergence, visual injury rating after approximately 10 d; read-out: Corn plant response rating (0 to 100 scale, 0 no effect, 100 complete control). Put shortly: as §2
Test [10] concerns ragweed (common ragweed, Ambrosia elatior). In words: Test A postemergence. As to conditions: Ambrosia artemisiifolia, post-emergence, 240 h, 125 g ai/ha, postemergence, visual injury rating after approximately 10 d; read-out: Ragweed plant response rating (0 to 100 scale, 0 no effect, 100 complete control). Put shortly: as §2
For test [11], the system named is pigweed (Amaranthus retroflexus). In words: Test A postemergence. The note with it: Amaranthus retroflexus, post-emergence, 240 h, 125 g ai/ha, postemergence, visual injury rating after approximately 10 d; read-out: Pigweed plant response rating (0 to 100 scale, 0 no effect, 100 complete control). In outline:
as §2

In test [12] the test system is barnyardgrass (Echinochloa crus-galli). In words: Test A postemergence. The note with it: Echinochloa crus-galli, post-emergence, 240 h, 125 g ai/ha, postemergence, visual injury rating after approximately 10 d; read-out: Barnyardgrass plant response rating (0 to 100 scale, 0 no effect, 100 complete control). In outline: as §2

With `CSc1ccccc1NC(=O)[C@H]1C(=O)N(C)C[C@@H]1c1cccc(OC(F)(F)C(F)F)c1` [Compound 862], the pest or weed control at 250 g/ha is 90% in test [1], 0% in test [2], 0% in the test on rice (Oryra sativa) and 0% in test [3]. For the same molecule, the pest or weed control at 125 g/ha came to 90% in [4]; 60% in test [5]; 60% in test [6]; 0% in [7]; 40% with Kochia (Kochia scoparia); 20% in [9]. Also, the figures for the pest or weed control at 125 g/ha in test [10], in test [11] and in [12] were 0%, 60% and 30%, respectively. Further, the pest or weed control at 500 g/ha in test [4] was determined as 90%. For the same molecule, the plant injury at 125 g/ha came to 0% in test [8] and 20% in the test on corn (Zea mays).
As to `Cc1c(F)cccc1NC(=O)[C@H]1C(=O)N(C)C[C@@H]1c1cc(F)c(F)c(F)c1` [Compound 867], the pest or weed control at 250 g/ha in test [1] is 100%; in test [2] it was 30%; in the test with rice (Oryra sativa) it was 30%; in [3] it was 65%. Besides, the pest or weed control at 125 g/ha in test [4] stood at 90%; in test [5], 30%; in test [6], 80%; in [7], 30%; in the test on Kochia (Kochia scoparia), 0%; in test [9], 20%. The results for the pest or weed control at 125 g/ha in test [10], in test [11] and in [12] were 0%, 0% and 90%, respectively. Also, the pest or weed control at 500 g/ha in test [4] was 90%. The plant injury at 125 g/ha was determined as 20% in [8] and 60% with corn (Zea mays).
In the case of `CN1C[C@H](c2cc(F)cc(F)c2)[C@@H](C(=O)Nc2ncc(C(F)(F)F)cc2F)C1=O` [Compound 868], the pest or weed control at 250 g/ha (in test [1]; in test [2]; with rice (Oryra sativa); in [3]) was 0% in each case. Further, the pest or weed control at 125 g/ha in test [4] stood at 20%; in [5], 0%; in test [6], 0%; in test [7] it was 0%; in the test on Kochia (Kochia scoparia), 0%; in test [9], 0%. Moreover, the figures for the pest or weed control at 125 g/ha in test [10], in [11] and in test [12] were 0%, 0% and 20%, respectively. Also, the pest or weed control at 500 g/ha in [4] is 60%. The plant injury at 125 g/ha (in test [8]; in the test on corn (Zea mays)) was 0% in each case.
With `CN1C[C@H](c2cc(F)cc(F)c2)[C@@H](C(=O)Nc2ccccc2[S@@+](C)[O-])C1=O` [Compound 872], the pest or weed control at 250 g/ha came out at 85% in test [1], 40% in test [2], 0% in the test with rice (Oryra sativa) and 0% in test [3]. Also, the pest or weed control at 125 g/ha in test [4] worked out at 90%; in test [5], 50%; in [6], 80%; in test [7], 20%; in the test on Kochia (Kochia scoparia) it was 50%; in test [9] it was 0%. For the same molecule, the pest or weed control at 125 g/ha in test [10] was 0%; in test [11], 30%; in test [12], 90%. Moreover, the pest or weed control at 500 g/ha in test [4] was 90%. Besides, the plant injury at 125 g/ha in [8] turned out to be 20%; with corn (Zea mays), 30%.
Turning to `CN1C[C@H](c2cccc(COC(F)F)c2)[C@@H](C(=O)Nc2ccccc2S(C)(=O)=O)C1=O` [Compound 877], the pest or weed control at 250 g/ha in test [1] came to 100%; in test [2], 0%; in the test with rice (Oryra sativa), 0%; in [3], 55%. Also, the pest or weed control at 125 g/ha is 90% in test [4]; 20% in test [5]; 70% in test [6]; 0% in test [7]; 20% in the test on Kochia (Kochia scoparia); 20% in test [9]. Moreover, the pest or weed control at 125 g/ha is 0% in [10], 0% in test [11] and 60% in [12]. Further, in test [4], the pest or weed control at 500 g/ha is 90%. Besides, the figures for the plant injury at 125 g/ha (in [8]; in the test with corn (Zea mays)) were 30% and 0%, respectively.
Consider `COc1c(F)ccc([C@H]2CNC(=O)[C@@H]2C(=O)Nc2ccccc2F)c1Cl` [Compound 881], for which the pest or weed control at 250 g/ha in [1] amounted to 100%; in [2], 0%; in the test on rice (Oryra sativa), 15%; in [3], 45%. For the same molecule, the pest or weed control at 125 g/ha was found to be 80% in test [4]; 0% in test [5]; 80% in test [6]; 0% in test [7]; 30% in the test with Kochia (Kochia scoparia); 30% in test [9]. Moreover, the pest or weed control at 125 g/ha in [10] amounted to 0%; in test [11], 0%; in test [12], 90%. In addition, in test [4], the pest or weed control at 500 g/ha amounted to 90%. Moreover, the plant injury at 125 g/ha (in test [8]; in the test with corn (Zea mays)) was 0% each time.
On to `COc1c(F)ccc([C@H]2CNC(=O)[C@@H]2C(=O)Nc2cccc(F)c2F)c1Cl` [Compound 882], for which the pest or weed control at 250 g/ha in [1] worked out at 100%; in [2], 0%; in the test on rice (Oryra sativa), 0%; in [3] it was 45%. Also, the pest or weed control at 125 g/ha was found to be 70% in test [4]; 50% in test [5]; 70% in test [6]; 40% in test [7]; 60% with Kochia (Kochia scoparia); 40% in [9]. The pest or weed control at 125 g/ha in test [10] was determined as 0%; in [11], 30%; in test [12], 80%. The pest or weed control at 500 g/ha in [4] worked out at 90%. The plant injury at 125 g/ha came to 0% in test [8] and 80% in the test with corn (Zea mays).
